Measurements reported in ChEMBL document CHEMBL3856269, “Anti-inflammatory activity effect of 2-substituted-1,4,5,6-tetrahydrocyclopenta[b]pyrrole on TPA-induced skin inflammation in mice” (2016).
Active and inactive are the calls of the source. The rule behind the calls is not given here.

The compounds below were run on Mus musculus (assay: Anti-inflammatory activity in Balb/c mouse assessed as reduction in TPA-induced hyperkeratosis at 0.75 uM administered topically 6 mins prior to TPA administration measured after 6 hrs by hematoxylin and eosin staining based microscopic analysis).
Format: functional
With `Cc1ccc(-c2cc(C(F)(F)F)nn2-c2ccc(S(N)(=O)=O)cc2)cc1` [CELECOXIB] the Activity was “Active”. In the case of `CCCn1c(-c2ccccc2)cc2c1CCC2`, the Activity is reported as “Active”.

What follows are compounds tested on Mus musculus (assay: In vivo inhibition of IKK activation in Balb/c mouse at 0.75 uM administered topically 6 mins prior to TPA administration measured after 6 hrs by immunohistochemical analysis).
Format: functional
In the case of `CCCn1c(-c2ccccc2)cc2c1CCC2`, the inhibition is reported as “Active”.

These compounds were tested on Mus musculus (assay: In vivo inhibition of IKK-mediated NF-kB activation in Balb/c mouse assessed as decrease in TPA-induced IL-6 expression at 0.75 uM administered topically 6 mins prior to TPA administration measured after 6 hrs by immunohistochemical analysis).
Format: functional
With `Cc1ccc(-c2cc(C(F)(F)F)nn2-c2ccc(S(N)(=O)=O)cc2)cc1` [CELECOXIB] the inhibition was “Active”. With `CCCn1c(-c2ccccc2)cc2c1CCC2` the inhibition was “Active”.

What follows are compounds tested on Mus musculus (assay: In vivo inhibition of IKK-mediated NF-kB activation in Balb/c mouse assessed as decrease in TPA-induced TNFalpha expression at 0.75 uM administered topically 6 mins prior to TPA administration measured after 6 hrs by immunohistochemical analysis).
Format: functional
`Cc1ccc(-c2cc(C(F)(F)F)nn2-c2ccc(S(N)(=O)=O)cc2)cc1` [CELECOXIB] was tested, and the inhibition was “Active”. With `CCCn1c(-c2ccccc2)cc2c1CCC2` the inhibition was “Active”.

The compounds below were run on Mus musculus (assay: Anti-inflammatory activity in Balb/c mouse assessed as reduction in TPA-induced dense dermal leukocyte infiltration at 0.75 uM administered topically 6 mins prior to TPA administration measured after 6 hrs by hematoxylin and eosin staining based microscopic analysis).
Format: functional
With `Cc1ccc(-c2cc(C(F)(F)F)nn2-c2ccc(S(N)(=O)=O)cc2)cc1` [CELECOXIB] the Activity was “Active”. For `CCCn1c(-c2ccccc2)cc2c1CCC2`, the Activity was “Active”.

These compounds were tested on Mus musculus (assay: Potency index, ratio of compound to celecoxib potency for reduction in TPA-induced ear edema in Balb/c mouse).
Format: functional
With `CCCn1c(-c2ccccc2)cc2c1CCC2` the Ratio was 3.2.

The compounds below were run on Mus musculus (assay: In vivo inhibition of IKK-mediated NF-kB activation in Balb/c mouse assessed as decrease in TPA-induced IL-1beta expression at 0.75 uM administered topically 6 mins prior to TPA administration measured after 6 hrs by immunohistochemical analysis).
Format: functional
For `Cc1ccc(-c2cc(C(F)(F)F)nn2-c2ccc(S(N)(=O)=O)cc2)cc1` [CELECOXIB], the inhibition was “Active”. For `CCCn1c(-c2ccccc2)cc2c1CCC2`, the inhibition was “Active”.

Each compound was assayed on Mus musculus (assay: In vivo inhibition of IKK-mediated NF-kB activation in Balb/c mouse assessed as decrease in TPA-induced phospho-Ser536 p65 expression at 0.75 uM administered topically 6 mins prior to TPA administration measured after 6 hrs by immunohistochemical analysis).
Format: functional
`Cc1ccc(-c2cc(C(F)(F)F)nn2-c2ccc(S(N)(=O)=O)cc2)cc1` [CELECOXIB] was tested, and the inhibition was “Active”. For `CCCn1c(-c2ccccc2)cc2c1CCC2`, the inhibition was “Active”.

What follows are compounds tested on Mus musculus (assay: In vivo inhibition of IKK-mediated NF-kB activation in Balb/c mouse assessed as decrease in TPA-induced COX2 expression at 0.75 uM administered topically 6 mins prior to TPA administration measured after 6 hrs by immunohistochemical analysis).
Format: functional
In the case of `Cc1ccc(-c2cc(C(F)(F)F)nn2-c2ccc(S(N)(=O)=O)cc2)cc1` [CELECOXIB], the inhibition is reported as “Active”. In the case of `CCCn1c(-c2ccccc2)cc2c1CCC2`, the inhibition is reported as “Active”.

The compounds below were run on Mus musculus (assay: In vivo inhibition of IKK-mediated NF-kB activation in Balb/c mouse assessed as decrease in TPA-induced phosphorylation of IKBalpha at Ser-32 residue at 0.75 uM administered topically 6 mins prior to TPA administration measured after 6 hrs by immunohistochemical analysis).
Format: functional
For `CCCn1c(-c2ccccc2)cc2c1CCC2`, the inhibition was “Active”.

These compounds were tested on Mus musculus (assay: Anti-inflammatory activity in TPA-induced Balb/c mouse ear edema model assessed as reduction in TPA-induced ear edema at 0.75 uM administered topically 6 mins prior to TPA administration measured after 6 hrs relative to control).
Format: functional
Set-up: scale not given: the % may be the effect or the level left
Work on `C#CCn1c(-c2ccc(C)cc2)cc2c1CCC2` yielded an Activity of 4.92%. For `c1ccc(-c2cc3c(n2C2CCCCC2)CCC3)cc1`, the Activity was 19.02%. `COc1ccc(Cn2c(-c3ccc(C)cc3)cc3c2CCC3)cc1` showed an Activity of 7.71%. `CCn1c(-c2ccccc2)cc2c1CCC2` showed an Activity of 13.56%. `c1ccc(-c2cc3c([nH]2)CCC3)cc1` showed an Activity of 10.23%. For `Clc1ccc(-n2c(-c3ccccc3)cc3c2CCC3)cc1`, the Activity was 19.41%. `c1ccc(-c2cc3c(n2-c2ccccc2)CC(c2ccccc2)C3)cc1` (configuration not stated) gave an Activity of 16.09%. For `c1ccc(-c2cc3c(n2-c2ccccc2)CCC3)cc1`, the Activity was -0.93%. `CC(C)(C)c1cc2c(n1-c1ccccc1)CCC2` gave an Activity of -0.53%. `c1ccc(-c2cc3c(n2C2CC2)CCC3)cc1` showed an Activity of 20.88%. `CCCCn1c(-c2ccccc2)cc2c1CCC2` showed an Activity of -9.17%. In the case of `CC(C)Cn1c(-c2ccccc2)cc2c1CCC2`, the Activity is reported as 6.91%. In the case of `Cc1ccc(-c2cc(C(F)(F)F)nn2-c2ccc(S(N)(=O)=O)cc2)cc1` [CELECOXIB], the Activity is reported as 17.95%. With `c1ccc(CCn2c(-c3ccccc3)cc3c2CCC3)cc1` the Activity was -1.86%. For `C#CCn1c(-c2ccccc2)cc2c1CCC2`, the Activity was 8.77%. `O=[N+]([O-])c1ccc(-n2c(-c3ccccc3)cc3c2CCC3)cc1` gave an Activity of -12.9%. In the case of `COc1ccc(Cn2c(-c3ccccc3)cc3c2CCC3)cc1`, the Activity is reported as 2.93%. `Brc1ccc(-n2c(-c3ccccc3)cc3c2CCC3)cc1` gave an Activity of 15.96%. For `c1ccc(Cn2c(-c3ccccc3)cc3c2CCC3)cc1`, the Activity was 25.66%. Compound `Cc1ccc(-c2cc3c(n2-c2ccccc2)CCC3)cc1` has an Activity of 0.53%. Compound `CCCn1c(-c2ccccc2)cc2c1CCC2` has an Activity of 57.31%. `COc1ccc(-c2cc3c([nH]2)CCC3)cc1` showed an Activity of 17.55%. In the case of `CC(C)(C)c1cc2c([nH]1)CCC2`, the Activity is reported as 9.71%. In the case of `c1ccc(CCCn2c(-c3ccccc3)cc3c2CCC3)cc1`, the Activity is reported as -13.56%. With `COCCCn1c(-c2ccccc2)cc2c1CCC2` the Activity was 1.46%. In the case of `Clc1ccccc1-n1c(-c2ccccc2)cc2c1CCC2`, the Activity is reported as -6.78%.

These compounds were tested on Mus musculus (assay: In vivo inhibition of IKK-mediated NF-kB activation in Balb/c mouse assessed as decrease in TPA-induced p65 expression at 0.75 uM administered topically 6 mins prior to TPA administration measured after 6 hrs by immunohistochemical analysis).
Format: functional
`Cc1ccc(-c2cc(C(F)(F)F)nn2-c2ccc(S(N)(=O)=O)cc2)cc1` [CELECOXIB] was tested, and the inhibition was “Active”. For `CCCn1c(-c2ccccc2)cc2c1CCC2`, the inhibition was “Active”.

These compounds were tested on Mus musculus (assay: Anti-inflammatory activity in Balb/c mouse assessed as reduction in TPA-induced epidermal hyperplasia at 0.75 uM administered topically 6 mins prior to TPA administration measured after 6 hrs by hematoxylin and eosin staining based microscopic analysis).
Format: functional
`Cc1ccc(-c2cc(C(F)(F)F)nn2-c2ccc(S(N)(=O)=O)cc2)cc1` [CELECOXIB] was tested, and the Activity was “Active”. For `CCCn1c(-c2ccccc2)cc2c1CCC2`, the Activity was “Active”.
